Assay results published in patent US9376470B2, “Polypeptide having angiogenesis-inducing activity and antibacterial activity, and use thereof for medical purposes” (FunPep Inc., priority 2008, dated 2016).
Peptide text beside a SMILES is read from it.

Key:
Assay in all cases: Antibacterial activity, ATP assay (BacTiter-Glo)
Type in all cases: cell-based
[1] = system: Staphylococcus epidermidis JCM 2414; conditions: ATP assay concentration: peptides 10, TOB 1.0, CPFX 0.5, OX 0.5, MEPM 0.125 μg/ml
Procedure: (§1) That is, using BacTiter-Glo Microbial Cell Viability Assay kit available from PROMEGA, the antibacterial activity of the peptides was evaluated from the viability of bacteria. […] With respect to the strains, Staphylococcus aureus ATCC29213 (S. aureus ATCC29213) as Gram-positive bacteria, or, alternatively, Pseudomonas aeruginosa (P. aeruginosa ATCC27853) as Gram-negative bacteria, was used. The bacteria were cultured in media for 3 to 4 hours, and thereafter absorbances at A600 were measured. Bacterial suspensions were diluted with Mueller-Hinton broth (MHB) according to McFarland #0.5. Each strain was added so as to attain about 0.5−1×10^5 CFU/mL (final concentration) in terms of Escherichia coli. […] A solution to which the peptides were not added was considered as a negative control, and a solution to which tobramycin (TOB) was added was considered as a positive control. […] Relative values were calculated by comparison with the negative control, and these values were regarded as the viability. […] ATP (%) of the antibacterial activity was measured in the same manner as mentioned above, and the “minimum inhibitory concentration (MIC)” was measured as follows. MIC is the lowest concentration of an agent that may inhibit the growth of a bacterium. MIC is used as a parameter for the efficacy of an antibacterial agent, for the strength of bacterial sensitivity, or the like. The bacteria can grow (proliferate) when the concentration is not higher than MIC, and cannot grow when the concentration is higher than MIC. Its measurement is carried out according to a method defined as a standard method by Japanese Society of Chemotherapy or CLINICAL AND LABORATORY […] (CLSI), but, in this Example, its measurement was carried out by a broth microdilution method in accordance with “M100-S17/M7-A7” (Performance Standards for Antimicrobial Susceptibility Testing; Seventeenth Informational Supplement, Vol. 27 No. 1) published by CLSI on January, 2007. That is, sensitivity test of agents was carried out using a microtiter plate or test tubes. With respect to each strain, Escherichia coli: ATCC 25922 (Escherichia coli ATCC 25922), Pseudomonas aeruginosa: ATCC 27853 (Pseudomonas aeruginosa ATCC 27853), Staphylococcus aureus: ATCC29213 (Staphylococcus aureus ATCC29213), Klebsiella pneumoniae: JCM 1662 (Klebsiella pneumoniae JCM 1662), enterobacteria (1): JCM 1232 (Enterobacter cloacae JCM 1232), enterobacteria (2): JCM 1235 (Enterobacter aerogenes JCM 1235), and Staphylococcus epidermidis: JCM 2414 (Staphylococcus epidermidis JCM 2414), were used. […] As the concentrations of the agents in ATP assay, the concentrations as described in the Tables were used.

[2] = system: Klebsiella pneumoniae JCM 1662; conditions: ATP assay concentration: peptides 10, TOB 4.0, CPFX 1.0, OX 0.5, MEPM 8.0 μg/ml
Procedure: as §1

[3] = system: Escherichia coli ATCC 25922; conditions: ATP assay concentration: peptides 10, TOB 1.0, CPFX 0.015, OX 0.5, MEPM 0.1 μg/ml
Procedure: as §1

[4] = system: Enterobacteria (2): Enterobacter aerogenes JCM 1235; conditions: ATP assay concentration: peptides 10, TOB 4.0, CPFX 1.0, OX 4.0, MEPM 8.0 μg/ml
Procedure: as §1

[5] = system: Enterobacteria (1): Enterobacter cloacae JCM 1232; conditions: ATP assay concentration: peptides 10, TOB 4.0, CPFX 1.0, OX 4.0, MEPM 8.0 μg/ml
Procedure: That is, using BacTiter-Glo Microbial Cell Viability Assay kit available from PROMEGA, the antibacterial activity of the peptides was evaluated from the viability of bacteria. […] With respect to the strains, Staphylococcus aureus ATCC29213 (S. aureus ATCC29213) as Gram-positive bacteria, or, alternatively, Pseudomonas aeruginosa (P. aeruginosa ATCC27853) as Gram-negative bacteria, was used. The bacteria were cultured in media for 3 to 4 hours, and thereafter absorbances at A600 were measured. Bacterial suspensions were diluted with Mueller-Hinton broth (MHB) according to McFarland #0.5. Each strain was added so as to attain about 0.5−1×10^5 CFU/mL (final concentration) in terms of Escherichia coli. […] A solution to which the peptides were not added was considered as a negative control, and a solution to which tobramycin (TOB) was added was considered as a positive control. […] Relative values were calculated by comparison with the negative control, and these values were regarded as the viability. […] ATP (%) of the antibacterial activity was measured in the same manner as mentioned above, and the “minimum inhibitory concentration (MIC)” was measured as follows. MIC is the lowest concentration of an agent that may inhibit the growth of a bacterium. MIC is used as a parameter for the efficacy of an antibacterial agent, for the strength of bacterial sensitivity, or the like. The bacteria can grow (proliferate) when the concentration is not higher than MIC, and cannot grow when the concentration is higher than MIC. […] (CLSI), but, in this Example, its measurement was carried out by a broth microdilution method in accordance with “M100-S17/M7-A7” (Performance Standards for Antimicrobial Susceptibility Testing; Seventeenth Informational Supplement, Vol. 27 No. 1) published by CLSI on January, 2007. That is, sensitivity test of agents was carried out using a microtiter plate or test tubes. With respect to each strain, Escherichia coli: ATCC 25922 (Escherichia coli ATCC 25922), Pseudomonas aeruginosa: ATCC 27853 (Pseudomonas aeruginosa ATCC 27853), Staphylococcus aureus: ATCC29213 (Staphylococcus aureus ATCC29213), Klebsiella pneumoniae: JCM 1662 (Klebsiella pneumoniae JCM 1662), enterobacteria (1): JCM 1232 (Enterobacter cloacae JCM 1232), enterobacteria (2): JCM 1235 (Enterobacter aerogenes JCM 1235), and Staphylococcus epidermidis: JCM 2414 (Staphylococcus epidermidis JCM 2414), were used. […] As the concentrations of the agents in ATP assay, the concentrations as described in the Tables were used.

Row | SMILES | ATP (%) mean, Staphylococcus epidermidis [1] [%] | ATP (%) mean, Klebsiella pneumoniae [2] [%] | ATP (%) mean, Escherichia coli [3] [%] | ATP (%) mean, Enterobacteria (2) [4] [%] | ATP (%) mean, Enterobacteria (1) [5] [%]
1 | C[C@@H](O)[C@H]1C(=O)N2C(C(=O)O)=C(S[C@@H]3CN[C@H](C(=O)N(C)C)C3)[C@H](C)[C@H]12 [MEPM, meropenem, reference compound] | 28.2 | 11.9 | 15.7 | 2.3 | 5.6
2 | Cc1onc(-c2ccccc2)c1C(=O)N[C@@H]1C(=O)N2[C@@H]1SC(C)(C)[C@@H]2C(=O)O [OX, oxacillin, reference compound] | 101.4 | 142.2 | 114.4 | 86.9 | 97.7
3 | CC[C@H](C)[C@H](NC(=O)[C@H](CC(C)C)NC(=O)[C@H](CCCCN)NC(=O)[C@H](CC(C)C)NC(=O)[C@@H](N)CCSC)C(=O)N[C@@H](Cc1ccccc1)C(=O)N[C@@H](CC(C)C)C(=O)N[C@@H](Cc1c[nH]cn1)C(=O)N[C@@H](CCCNC(=N)N)C(=O)N[C@@H](CC(C)C)C(=O)N[C@@H](CCCCN)C(=O)N[C@@H](CCCNC(=N)N)C(=O)N[C@@H](CCSC)C(=O)N[C@@H](CCCNC(=N)N)C(=O)N[C@@H](CCCCN)C(=O)N[C@@H](CCCNC(=N)N)C(=O)N[C@@H](CC(C)C)C(=O)N[C@@H](CCCCN)C(=O)N[C@@H](CCCNC(=N)N)C(=O)N[C@@H](CCCCN)C(=O)O [SR-1] (H-MLKLIFLHRLKRMRKRLKRK-OH; N-terminus assumed) | 5.2 | 22.1 | 18.4 | 39.4 | 4.9
4 | CC(C)C[C@H](NC(=O)[C@H](CCCCN)NC(=O)[C@H](CCCNC(=N)N)NC(=O)[C@H](CCCCN)NC(=O)[C@H](CC(C)C)NC(=O)[C@H](CCCNC(=N)N)NC(=O)[C@H](CCCCN)NC(=O)[C@H](CCCNC(=N)N)NC(=O)[C@H](CC(C)C)NC(=O)[C@H](CCCNC(=N)N)NC(=O)[C@H](CCCNC(=N)N)NC(=O)[C@H](CCCCN)NC(=O)[C@H](CC(C)C)NC(=O)[C@H](CCCNC(=N)N)NC(=O)[C@H](Cc1c[nH]cn1)NC(=O)[C@H](CC(C)C)NC(=O)[C@H](Cc1ccccc1)NC(=O)[C@H](CCCNC(=N)N)NC(=O)[C@H](CC(C)C)NC(=O)[C@@H](N)CCC(=O)O)C(=O)N[C@@H](CCCNC(=N)N)C(N)=O [SR-2] (H-ELRFLHRLKRRLRKRLKRKLR-NH2; N-terminus assumed) | 2.6 | 9.1 | 6.2 | 15.3 | 3.0
5 | CSCC[C@H](NC(=O)[C@H](CCCNC(=N)N)NC(=O)[C@H](CCCCN)NC(=O)[C@H](CC(C)C)NC(=O)[C@H](CCCNC(=N)N)NC(=O)[C@H](Cc1c[nH]cn1)NC(=O)[C@H](CC(C)C)NC(=O)[C@H](Cc1ccccc1)NC(=O)[C@H](CCCNC(=N)N)NC(=O)[C@H](CC(C)C)NC(=O)[C@@H](N)CCC(=O)O)C(=O)N[C@@H](CCCNC(=N)N)C(=O)N[C@@H](CCCCN)C(=O)N[C@@H](CCCNC(=N)N)C(=O)N[C@@H](CC(C)C)C(=O)N[C@@H](CCCCN)C(=O)N[C@@H](CCCNC(=N)N)C(=O)N[C@@H](CCCCN)C(=O)N[C@@H](CC(C)C)C(=O)N[C@@H](CCCNC(=N)N)C(N)=O [SR-3] (H-ELRFLHRLKRMRKRLKRKLR-NH2; N-terminus assumed) | 4.1 | 20.3 | 16.5 | 23.5 | 4.3
6 | CC[C@H](C)[C@H](NC(=O)[C@H](CC(C)C)NC(=O)[C@@H](N)CCCCN)C(=O)N[C@@H](Cc1ccccc1)C(=O)N[C@@H](CC(C)C)C(=O)N[C@@H](Cc1c[nH]cn1)C(=O)N[C@@H](CCCNC(=N)N)C(=O)N[C@@H](CC(C)C)C(=O)N[C@@H](CCCCN)C(=O)N[C@@H](CCCNC(=N)N)C(=O)N[C@@H](CCSC)C(=O)N[C@@H](CCCNC(=N)N)C(=O)N[C@@H](CCCCN)C(=O)N[C@@H](CCCNC(=N)N)C(=O)N[C@@H](CC(C)C)C(=O)N[C@@H](CCCCN)C(=O)N[C@@H](CCCNC(=N)N)C(=O)N[C@@H](CCCCN)C(=O)N[C@@H](CC(C)C)C(=O)N[C@@H](CCCNC(=N)N)C(N)=O [SR-4] (H-KLIFLHRLKRMRKRLKRKLR-NH2; N-terminus assumed) | 5.5 | 15.0 | 13.0 | 20.9 | 4.9
7 | CSCC[C@H](NC(=O)[C@H](CCCNC(=N)N)NC(=O)[C@@H](N)CCCCN)C(=O)N[C@@H](CCCNC(=N)N)C(=O)N[C@@H](CCCCN)C(=O)N[C@@H](CCCNC(=N)N)C(=O)N[C@@H](CC(C)C)C(=O)N[C@@H](CCCCN)C(=O)N[C@@H](CCCNC(=N)N)C(=O)N[C@@H](CCCCN)C(=O)N[C@@H](CC(C)C)C(=O)N[C@@H](CCCNC(=N)N)C(=O)N[C@@H](CC(C)C)C(=O)N[C@@H](Cc1c[nH]c2ccccc12)C(=O)N[C@@H](Cc1c[nH]cn1)C(=O)N[C@@H](CCCNC(=N)N)C(=O)N[C@@H](CCCCN)C(=O)N[C@@H](CCCNC(=N)N)C(=O)N[C@@H](Cc1ccc(O)cc1)C(=O)N[C@@H](CCCCN)C(=O)O [SR-5] (H-KRMRKRLKRKLRLWHRKRYK-OH; N-terminus assumed) | 3.6 | 30.0 | 27.0 | 41.5 | 3.4
8 | NC[C@H]1O[C@H](O[C@H]2[C@H](O)[C@@H](O[C@H]3O[C@H](CO)[C@@H](O)[C@H](N)[C@H]3O)[C@H](N)C[C@@H]2N)[C@H](N)C[C@@H]1O [TOB, tobramycin, reference compound] | 4.2 | 3.8 | 3.8 | 0.5 | 3.0
